Data set [1] concerns MDV. In kind it is cell-based, Marek's disease virus (MDV) strain RB1B.
Data set [2] relates to MDV. Set-up: species or system Marek's disease virus (MDV) strain RB1B. As to conditions: in vivo.
The nature of data set [3]: Gel filtration (GF) analysis of oligomeric state. In kind it is physicochemical. The following applies: for MW of polymer (GF peak molecular mass): Superdex G75, 20 mM Tris-HCl pH 8.0, estimated against protein standards; for Oligomeric state: aqueous solution, Superdex G75, 20 mM Tris-HCl pH 8.0, GF peak mass versus MS monomer mass. How it is done:
Figure 5 GF results and structural analyses of five peptides. (top) GF analysis of peptides. The purified peptides were loaded onto the Superdex G75 column in a buffer solution of 20 mM Tris-HCl, pH 8.0. The peak molecular mass was estimated by comparison with the protein standards running on the same column. The clear peak of gHH1 occurred at about 12.1 kDa. This molecular mass matches the approximate sum of four molecules, indicating the formation of the homotetrameric structure. The peak of gHH2 occurred at about 7.2 kDa, indicating the formation of the homodimeric structure. The peak of gHH3 occurred at about 3.8 kDa, indicating the monomeric state. The peak of gHH5 occurred at about 9.1 kDa, indicating the formation of the homotrimeric structure. The peak of gBH1 occurred at about 10.7 kDa, indicating the formation of the homotrimeric structure. (bottom) Sequences and calculated oligomeric states of gHH1, gHH2, gHH3, gHH5, and gBH1 in aqueous solution. TEXT PRINTED IN THE PICTURE: gHH1: MW of monomer: 3184 Da; MW of polymer: 12.1 kDa; Oligomeric state: 4 (tetramer) | gHH2: MW of monomer: 3623 Da; MW of polymer: 7.2 kDa; Oligomeric state: 2 (dimer) | gHH3: MW of monomer: 3795 Da; MW of polymer: 3.8 kDa; Oligomeric state: 1 (monomer) | gHH5: MW of monomer: 3002 Da; MW of polymer: 9.1 kDa; Oligomeric state: 3 (trimer) | gBH1: MW of monomer: 3303 Da; MW of polymer: 10.7 kDa; Oligomeric state: 3 (trimer)
The purified cleaved peptides were loaded onto the Superdex G75 column in a solution buffer of 20 mM Tris-HCl, pH 8.0. The peak molecular mass was estimated by comparison with protein standards running on the same column. The peak fractions were collected and analysed by 15% SDS-PAGE. The analytical column was calibrated using a series of individual runs of standard molecular mass proteins as markers including bovine serum albumin (68 kDa), egg white albumin (43 kDa), […] (13.7 kDa), aprotinin (6.5 kDa), antimicrobial peptides (5 kDa), and vitamin B12 (1.4 kDa).

Where a SMILES comes first, the peptide text is derived from it.

In the case of `CC[C@H](C)[C@H](NC(=O)[C@H](Cc1ccc(O)cc1)NC(=O)CNC(=O)[C@H](CO)NC(=O)[C@H](CCC(N)=O)NC(=O)[C@H](Cc1ccccc1)NC(=O)[C@H](C)NC(=O)[C@H](CC(N)=O)NC(=O)[C@H](CCCNC(=N)N)NC(=O)[C@@H](NC(=O)[C@H](CO)NC(=O)[C@H](C)NC(=O)[C@@H](NC(=O)[C@H](CC(C)C)NC(=O)[C@H](CO)NC(=O)[C@H](CCSC)NC(=O)[C@H](Cc1ccccc1)NC(=O)[C@H](CC(C)C)NC(=O)[C@H](CCCNC(=N)N)NC(=O)[C@@H](NC(=O)[C@@H](NC(=O)[C@@H](NC(=O)[C@@H](N)C(C)C)C(C)C)[C@@H](C)O)[C@@H](C)O)C(C)C)C(C)C)C(=O)N[C@@H](CO)C(=O)N[C@@H](Cc1ccccc1)C(=O)N[C@@H](CC(=O)O)C(=O)N[C@@H](CCC(=O)O)C(=O)N[C@H](C(=O)N[C@H](C(=O)N[C@@H](CCCCN)C(=O)N[C@H](C(=O)N[C@@H](CCC(=O)O)C(=O)O)[C@@H](C)O)[C@@H](C)CC)[C@@H](C)CC` [gHH2] (H-VVTTRLFMSLVASVRNAFQSGYISFDEIIKTE-OH; N-terminus and C-terminus assumed), in the data set with MDV [1], the “plaque formation (result in words)” value is “completely inhibited”. Also, the “lesion formation on CAMs (words)” value in the data set on MDV [2] is “significantly able to reduce lesion formation”. In data set [3], the “MW of polymer (GF peak molecular mass)” value is reported as 7.2 kDa and the Oligomeric state is recorded as 2.

`CC[C@H](C)[C@H](NC(=O)[C@H](CCC(=O)O)NC(=O)[C@H](CCSC)NC(=O)[C@H](CC(=O)O)NC(=O)[C@H](CO)NC(=O)[C@H](C)NC(=O)[C@H](CC(N)=O)NC(=O)[C@H](CCSC)NC(=O)[C@@H](N)Cc1c[nH]cn1)C(=O)N[C@@H](CCCCN)C(=O)N[C@@H](CO)C(=O)N[C@@H](Cc1ccc(O)cc1)C(=O)N[C@H](C(=O)N[C@@H](CC(N)=O)C(=O)N[C@@H](CCSC)C(=O)N[C@H](C(=O)N[C@@H](CCC(=O)O)C(=O)N[C@@H](CO)C(=O)N[C@H](C(=O)N[C@@H](CCC(=O)O)C(=O)N[C@@H](CCC(=O)O)C(=O)N[C@@H](CO)C(=O)N[C@@H](CO)C(=O)N[C@@H](CC(N)=O)C(=O)N[C@@H](Cc1ccc(O)cc1)C(=O)N[C@@H](CC(=O)O)C(=O)N[C@@H](Cc1ccccc1)C(=O)O)C(C)C)[C@@H](C)CC)[C@@H](C)CC` [gHH1] (H-HMNASDMEIKSYINMIESVEESSNYDF-OH; N-terminus and C-terminus assumed): in the data set on MDV [1], the “inhibition of plaque formation” value is on record as 100% and the plaque formation result is given as “completely inhibited”. Further, in the data set with MDV [2], the “lesion formation on CAMs” value is listed as “completely inhibited” and the “lesion formation on CAMs (words)” value is listed as “significantly able to reduce lesion formation”. Moreover, in data set [3], the “MW of polymer (GF peak molecular mass)” value is 12.1 kDa and the Oligomeric state is on record as 4.

On to `CC[C@H](C)[C@H](NC(=O)[C@H](CO)NC(=O)[C@H](CC(C)C)NC(=O)[C@H](CO)NC(=O)[C@H](C)NC(=O)[C@@H](NC(=O)[C@H](CC(N)=O)NC(=O)[C@H](CCCCN)NC(=O)[C@H](CO)NC(=O)[C@H](C)NC(=O)[C@H](CC(N)=O)NC(=O)[C@@H](NC(=O)[C@@H](NC(=O)[C@@H](NC(=O)[C@H](CCCCN)NC(=O)[C@H](CCCNC(=N)N)NC(=O)[C@@H](NC(=O)[C@H](CC(C)C)NC(=O)[C@H](CO)NC(=O)[C@H](CCCCN)NC(=O)[C@@H](NC(=O)[C@@H](NC(=O)[C@H](CC(=O)O)NC(=O)[C@H](C)NC(=O)[C@@H](N)CC(N)=O)[C@@H](C)CC)[C@@H](C)CC)[C@@H](C)CC)[C@@H](C)O)[C@@H](C)CC)[C@@H](C)CC)[C@@H](C)O)C(=O)N[C@@H](CC(C)C)C(=O)N[C@@H](CCC(N)=O)C(=O)N[C@@H](Cc1c[nH]cn1)C(=O)N[C@@H](CC(C)C)C(=O)N[C@@H](Cc1ccc(O)cc1)C(=O)N[C@H](C(=O)N[C@@H](CC(C)C)C(=O)N[C@@H](CCCNC(=N)N)C(=O)N[C@@H](CO)C(=O)O)C(C)C` [gHH3] (H-NADIIKSLIRKTIINASKNTASLSILQHLYVLRS-OH; N-terminus and C-terminus assumed), for which the plaque formation with MDV [1] was roughly 20%. The “lesion formation on CAMs (words)” value in the data set on MDV [2] was “significantly able to reduce lesion formation”. In data set [3], the “MW of polymer (GF peak molecular mass)” value is recorded as 3.8 kDa and the Oligomeric state is given as 1.

Take `CC[C@H](C)[C@H](NC(=O)[C@H](C)NC(=O)[C@H](C)NC(=O)[C@H](CCC(=O)O)NC(=O)[C@H](C)NC(=O)[C@H](CCC(=O)O)NC(=O)[C@H](CCCNC(=N)N)NC(=O)[C@H](CCCCN)NC(=O)[C@@H](NC(=O)[C@H](CS)NC(=O)[C@H](CCC(N)=O)NC(=O)CNC(=O)[C@H](CC(C)C)NC(=O)[C@@H](NC(=O)[C@@H](NC(=O)[C@@H](N)CCCNC(=N)N)[C@@H](C)CC)[C@@H](C)CC)[C@@H](C)CC)C(=O)N[C@@H](CCC(=O)O)C(=O)N[C@@H](CCC(N)=O)C(=O)N[C@H](C(=O)N[C@@H](Cc1ccccc1)C(=O)N[C@@H](CCCNC(=N)N)C(=O)N[C@H](C(=O)N[C@@H](CCCCN)C(=O)N[C@@H](Cc1ccc(O)cc1)C(=O)N[C@@H](CC(N)=O)C(=O)N[C@@H](CC(=O)O)C(=O)N[C@@H](CO)C(=O)N[C@@H](Cc1c[nH]cn1)C(=O)O)[C@@H](C)O)[C@@H](C)CC` [gBH1]: the plaque formation in the data set with MDV [1] is recorded as roughly 12%. Also, in the data set with MDV [2], the “lesion formation on CAMs (words)” value is reported as “significantly able to reduce lesion formation”. Also, in data set [3], the “MW of polymer (GF peak molecular mass)” value is on record as 10.7 kDa and the Oligomeric state is listed as 3.

The molecule `CC[C@H](C)[C@H](NC(=O)[C@H](CCCCN)NC(=O)[C@@H](NC(=O)[C@H](Cc1ccc(O)cc1)NC(=O)[C@H](CCSC)NC(=O)[C@H](CCC(=O)O)NC(=O)[C@H](CCC(N)=O)NC(=O)[C@@H](NC(=O)[C@@H](NC(=O)[C@H](CC(C)C)NC(=O)[C@H](CCC(=O)O)NC(=O)[C@@H](NC(=O)[C@H](C)NC(=O)[C@@H](NC(=O)[C@@H](NC(=O)[C@H](Cc1c[nH]cn1)NC(=O)[C@H](CCC(=O)O)NC(=O)[C@H](CCC(=O)O)NC(=O)[C@@H](NC(=O)[C@@H](N)CS)[C@@H](C)O)[C@@H](C)CC)C(C)C)[C@@H](C)O)C(C)C)[C@@H](C)CC)[C@@H](C)CC)C(=O)N[C@@H](CC(N)=O)C(=O)N[C@H](C(=O)N[C@@H](CCCCN)C(=O)N[C@@H](CC(N)=O)C(=O)N[C@@H](CO)C(=O)N1CCC[C@H]1C(=O)O)C(C)C` [gHH5] (H-CTEEHIVATELVIQEMYIKINVKNSP-OH; N-terminus and C-terminus assumed) showed a plaque formation with MDV [1] of roughly 13%. Moreover, the “lesion formation on CAMs (words)” value in the data set on MDV [2] is reported as “significantly able to reduce lesion formation”. In data set [3], the “MW of polymer (GF peak molecular mass)” value was 9.1 kDa and the Oligomeric state is 3.
